# Where two headings read alike, the source gives them in different places.
# What was measured:
# [1] = system: Platelet aggregation (rabbit platelet rich plasma); assay: Platelet aggregation in vitro (rabbit platelet rich plasma, ADP- or collagen-induced); type: cell-based; details: Oryctolagus cuniculus, rabbit PRP, pH 7.4, 37° C.
# Experimental: Platelet rich plasma (PRP) which contains 6-7×10^8 platelets/ml was prepared from rabbit blood. To the 200 μl of PRP, 5 μl of calcium chloride (1 mM) and 50 μl of 25 mM Tris-acetate solution (pH 7.4) containing 120 mM NaCl or test compound were added successively, and then stirred for 2 min. at 37° C. To the solution, 5 μl of adenosine diphosphate (ADP) (2.5 μM) or collagen (2.5 μg/ml) was added to an aggregation inducer. Aggregation was measured by using an aggregometer (NKK HEMATRACER 1). Activities of inhibitors (test compounds) were expressed as ID50 values i.e. Doses required to inhibit the platelet aggregation responses by 50%.
# [2] = system: Platelet aggregation (rat blood); assay: Platelet aggregation ex vivo (collagen-induced, after oral administration); type: in vivo, Male Sprague-Dawley rats; details: one hour after administration, collagen 5.0 μg/ml
# Experimental: Male Sprague-Dawley rats weighing about 250 g were used after overnight fasting. One hour after oral administration of test compound or vehicle of test compound (control), blood was collected into a tube containing 0.1 vol. of 3.8% sodium citrate. To the 0.45 ml of blood, 0.05 ml of collagen (final concentration 5.0 μg/ml) was added and then incubated for 5 min. at 37° C. under shaking.
# The reaction was terminated by addition of 1 ml of 10 mM phosphate buffered saline (pH 7.4) containing 11.5 mM EDTA and 1% formalin. The reaction mixture was centrifuged at 70 xg for 5 min. and platelet count of upper phase was measured by Technicon Auto Analizer.
# Platelet aggregation was calculated according to the following formula: [formula] A; Platelet count after addition of vehicle of collagen B; Platelet count after addition of collagen
# Inhibition of the test compound was calculated according to the following formula; [formula] C; Platelet aggregation (%) of control D; Platelet aggregation (%) of Test compound
smiles,measurement,setting,value
"CN1CCN(C(=O)Cn2c(=O)sc3ncc(Cl)cc32)CC1 [Example 2, 6-chloro-2-oxo-1-[(4-methyl-1-piperazinyl)carbonylmethyl]-1,2-dihydrothiazolo[5,4-b]pyridine]",IC50,"[1]; inducer ADP (2.5 μM), read-out: ID50 ADP",55 µM
same,IC50,"[1]; inducer collagen (2.5 μg/ml), read-out: ID50 Collagen",37 µM
same,Inhibition (%),[2]; 10 mg/kg oral,8%
same,Inhibition (%),[2]; 32 mg/kg oral,103%
same,Inhibition (%),[2]; 100 mg/kg oral,121%
